# Entries after “also recorded” stand apart in the source; their conditions may differ.
# Key:
# [1] = system: senescent cells in tumor tissue; test: SA-β-Gal staining of tumor tissues of PC3/PSC27 tumor-bearing mice; type: in vivo, mouse; conditions: MIT alone
# Method: Representative pictures after SA-β-Gal staining. Scale bar, 100 μm.
# (§1) In a preclinical treatment trial, subcutaneously transplanted mice were fed with a standard experimental diet, after 2 weeks chemotherapy drugs mitoxantrone (MIT, dose: 0.2 mg/kg) and/or SAE (500 μl, dose: 10 mg/kg) via intraperitoneal administration. The time points were: the former was administrated on the first day of the 3rd, 5th and 7th weeks, and the latter was administrated on the first day of the 5th and 7th weeks. A total of 3 cycles of MIT administration were carried out throughout the course of treatment, and each cycle lasted for 2 weeks. After the course of treatment, mouse tumors were harvested for volume measurement and histological analysis. Each mouse cumulatively received 0.6 mg/kg body weight of MIT and 30 mg/kg body weight of SAE. In order to cause systemic expression of SASP factors induced by chemotherapy, MIT was administered to mice through intravenous infusion according to the above steps and sequence, but the dose was reduced to 0.1 mg/kg body weight/each time (the cumulative dose of MIT received in the whole course of treatment was 0.3 mg/kg body weight) to reduce drug-related toxicity. The chemotherapy experiment ended at the end of the 8th week, and the mice were dissected immediately after sacrifice, and the xenograft tumors were collected and used for pathological system analysis.
# SASP factors = test: LCM and qRT-PCR of SASP factors in mouse lesions; type: in vivo; conditions: after MIT administration
# Method: The stromal cells and cancer cells were specifically separated by LCM technology, total RNA was prepared and used for SASP expression detection. ^, P>0.05; *, P<0.05; **, P<0.01.
# as §1, with “The chemotherapy experiment ended at the end of the 8th week, and the mice were dissected immediately after sacrifice, and the xenograft tumors were collected and used for pathological system analysis.” left out
# PC3/PSC27 tumors = test: DNA damage and apoptosis in tumors of treated mice; type: in vivo, mouse; conditions: single agent compared with placebo, 7 days after first SAE administration
# Excerpt: To investigate mechanisms directly supporting this senescence-associated pattern with expression and reversal of SASP in MIT-administered mice, the inventors dissected tumors in animals treated with both drugs 7 days after the first SAE administration, and the time point of 7 days after administration was selected mainly because drug-resistant clones had not yet formed in cancer cells in the lesion at this time. […] As supporting evidence, when SAE was applied during treatment, caspase 3 cleavage activity was increased, which was a typical hallmark of apoptosis (FIG. 29).
# [2] = system: PC3/PSC27 transplanted tumors; test: PC3/PSC27 xenograft tumor volume in NOD/SCID mice; type: in vivo, mouse; conditions: for effect on tumors when combined with MIT: combination with MIT vs MIT alone; for effect on tumor volume of chemotherapeutic drug combined with SAE: combination with SAE vs chemotherapeutic drug alone
# Method: Every two weeks was a dosing cycle, and MIT (mitoxantrone) was intraperitoneally administered to the mice on the first day of the 3rd/5th/7th weeks. From the first day of the 5th week, the mice were intraperitoneally administered with SAE, […]. After the 8-week course of treatment, the mice were dissected for pathological identification and expression analysis.
# All experimental mouse experiments were carried out in strict accordance with the relevant regulations of the Institutional Animal Care and Use Committee (IACUC), Shanghai Institutes for Biological Sciences, Chinese Academy of Sciences. Immuno-deficient mice (NOD-SCID mice, ICR) (body weight about 25 g) aged 6-8 weeks were used for animal experiments related to the present patent. Stromal cells PSC27 and epithelial cells PC3 were mixed at a predetermined ratio of 1:4, and each graft contained 1.25×10^6 cells for tissue remodeling. The xenograft tumors were implanted into mice by subcutaneous transplantation, and the animals were euthanized 8 weeks after the end of the transplantation surgery. Tumor volume was calculated according to the following formula: V=(π/6)×((1+w)/2)3 (V, volume; l, length; w, width).
# as §1
# PSC27 [3] = test: SA-β-Gal staining of PSC27 cells (bleomycin-induced senescence, increasing SAE concentration); type: cell-based, human; conditions: PSC27 treated with bleomycin 50 μg/ml, vs control cells
# Method: The P value of positive proportion of cells in these experimental groups for SAE at the concentrations of 100 μM, 200 μM, 400 μM, 800 μM, 1600 μM, 2000 μM and 3000 μM are statistically significant compared with the data at 0 μM.
# (§2) To cause cell damage, 50 μg/mL bleomycin (bleomycin, BLEO) was added to the culture medium when PSC27 cells grew to 80% (abbreviated as PSC27-CTRL). After 12 hours of drug treatment, the cells were simply washed 3 times with PBS, left in the culture medium for 7-10 days, and then the subsequent experiments were performed.
# Senescence-associated B-galactosidase (SA-β-Gal) staining was performed following a previously reported procedure (Debacq-Chainiaux, et. al., 2009). Briefly, cells in culture dishes were washed with PBS and fixed at room temperature. Cells were fixed in 2% formaldehyde and 0.2% glutaraldehyde for 3 minutes. SA-β-Gal was used for staining with freshly prepared staining solution overnight at 37° C. Images were taken on the next day and the percentage of positive cells per unit area was calculated.
# PSC27 [4] = test: BrdU and γH2AX immunofluorescence staining of PSC27 cells after bleomycin; type: cell-based, human; conditions: PSC27 treated with bleomycin
# Method: as §2
# For immunofluorescent staining, target cells were pre-seeded on a coverslip for at least 24 h after culture in dishes. After a brief wash, the cells were fixed with 4% paraformaldehyde in PBS for 8 min and blocked with 5% normal goat serum (NGS, Thermo Fisher) for 30 min. Mouse monoclonal antibody-anti-phospho-Histone H2A.X (Ser139) (clone JBW301, Millipore) and mouse monoclonal antibody-anti-BrdU (Cat #347580, BD Biosciences), and secondary antibody Alexa Fluor®488 (or 594)-conjugated F (ab′) 2 were sequentially added to the slides coated with the fixed cells. Nuclei were counterstained with 2 μg/ml of 4′, 6-diamidino-2-phenylindole (DAPI). The most representative image was selected from the three observation fields for data analysis and result display. FV1000 laser scanning confocal microscope (Olympus) was used to acquire confocal fluorescent images of cells.
# PSC27 [5] = test: Caspase 3/7 apoptosis detection in senescent PSC27 cells (IncuCyte); type: cell-based, human; conditions: 20 μM QVD-OPh, 200 μM SAE
# Method: PSC27 cells gradually entered the senescent stage after being treated with BLEO for 12 hours under culture conditions. 200 μM SAE was added to the medium of senescent cells starting from day 7, NucLight Rapid Red reagent was used to label the cells and caspase 3/7 reagent (IncuCyte) was used for apoptosis detection. Caspase 3/7 activity was detected every 4 hours (n=3).
# Statistical differences are obtained by two-way ANOVA (Turkey'test).
# PSC27 cells were plated in a 96-well dish, and the cells were induced to senescence under 50 μg/ml of BLEO treatment. SAE and ABT263 were added at concentrations of 200 μM and 1.25 μM, respectively. Cell culture medium was supplemented with Incucyte Nuclight fast Red Reagent (Essen Bioscience) and Incucyte C-3/7 Apoptosis Reagent (Essen Bioscience). Representative field of view was selected to take pictures.
compound,measurement,setting,value
"O=C1c2c(O)ccc(O)c2C(=O)c2c(NCCNCCO)ccc(NCCNCCO)c21 [MIT, mitoxantrone]",senescent cells in the tumor tissue after MIT administration,[1],induced the appearance of a large number of senescent cells
same,expression of SASP factors in lesions (mainly stromal cells),SASP factors,significantly increased; also recorded: significantly elevated expression
same,degree of DNA damage and apoptosis,PC3/PSC27 tumors,significant increase
same,reduction in tumor size compared to placebo-treated group,"[2]; single agent, end of 8 weeks",44.1%
"O=C(/C=C/c1ccc(O/C(=C\c2ccc(O)c(O)c2)C(=O)O)c(O)c1)OC(Cc1ccc(O)c(O)c1)C(=O)O (stereo not shown) [SAI, salvianolic acid I]",effect on tumors when combined with MIT,[2],no significant effects
bleomycin,positive rate of senescence-associated β-galactosidase (SA-β-Gal) staining,PSC27 [3],significant increase
same,BrdU incorporation rate,PSC27 [4]; vs control cells,greatly reduced
same,DNA damage repair foci (DDR foci),PSC27 [4]; γH2AX staining,significantly increased
same,effect on tumor volume of chemotherapeutic drug combined with SAE,[2],roughly repeat the significant effect
"CC(C)[C@H](NC(=O)c1ccc2ccccc2n1)C(=O)N[C@@H](CC(=O)O)C(=O)COc1c(F)cccc1F [QVD, reference compound]",effect of pan-caspase inhibitor on killing of senescent cells by SAE,PSC27 [5],could prevent the killing of senescent cells by SAE
salvianolic acid J [SAJ],effect on tumors when combined with MIT,[2],no significant effects
"CC(=O)O[C@@]12CO[C@@H]1C[C@H](O)[C@@]1(C)C(=O)[C@H](O)C3=C(C)[C@@H](OC(=O)[C@H](O)[C@@H](NC(=O)OC(C)(C)C)c4ccccc4)C[C@@](O)([C@@H](OC(=O)c4ccccc4)[C@H]21)C3(C)C [DOC, docetaxel]",effect on tumor volume of chemotherapeutic drug combined with SAE,[2],no further tumor shrinkage
same,tumor volume when chemotherapeutic drug used alone,[2],reduce the tumor volume
"CC[C@]1(O)C[C@H]2CN(CCc3c([nH]c4ccccc34)[C@@](C(=O)OC)(c3cc4c(cc3OC)N(C=O)[C@H]3[C@@](O)(C(=O)OC)[C@H](OC(C)=O)[C@]5(CC)C=CCN6CC[C@]43[C@@H]65)C2)C1 [VIN, vincristine]",effect on tumor volume of chemotherapeutic drug combined with SAE,[2],no further tumor shrinkage
same,tumor volume when chemotherapeutic drug used alone,[2],reduce the tumor volume
"COc1cccc2c1C(=O)c1c(O)c3c(c(O)c1C2=O)C[C@@](O)(C(=O)CO)C[C@@H]3O[C@H]1C[C@H](N)[C@H](O)[C@H](C)O1 [DOX, doxorubicin]",effect on tumor volume of chemotherapeutic drug combined with SAE,[2],roughly repeat the significant effect

# From patent US20250295619A1, “Use of Salvianolic Acid E in the Preparation of Drugs Targeting Senescent Cells, Inhibiting Tumors or Extending Lifespan” (Shanghai Institute of Nutrition and Health, Chinese Academy …, priority 2024, published 2025)
